Data published in publication PMC10388301, “Exploring the Anticancer Activity of Tamoxifen-Based Metal Complexes Targeting Mitochondria” (Journal of Medicinal Chemistry, 2023).

Target: T1, thioredoxin reductase 1 (TrxR1, cytosolic) (Rattus norvegicus, UniProt O89049)
T1 construct: gene Txnrd1; highly purified enzyme from rat liver
T1 sequence (O89049 1-499): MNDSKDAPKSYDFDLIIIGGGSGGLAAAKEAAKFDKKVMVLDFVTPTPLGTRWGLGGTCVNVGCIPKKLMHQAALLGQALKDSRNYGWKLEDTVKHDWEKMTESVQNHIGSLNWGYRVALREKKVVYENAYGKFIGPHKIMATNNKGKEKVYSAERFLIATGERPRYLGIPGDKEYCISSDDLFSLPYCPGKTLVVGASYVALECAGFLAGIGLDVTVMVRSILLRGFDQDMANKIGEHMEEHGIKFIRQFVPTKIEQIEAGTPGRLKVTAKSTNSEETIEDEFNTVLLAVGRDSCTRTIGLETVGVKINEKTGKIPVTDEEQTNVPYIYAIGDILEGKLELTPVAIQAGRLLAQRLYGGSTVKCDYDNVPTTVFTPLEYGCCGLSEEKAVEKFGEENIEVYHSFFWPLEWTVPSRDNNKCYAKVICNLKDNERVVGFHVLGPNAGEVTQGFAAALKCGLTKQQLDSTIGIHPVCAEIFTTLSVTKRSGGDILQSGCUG
Assay: DTNB reduction assay on purified rat liver TrxR1; BIAM labelling of Sec/Cys residues
Format: biochemical

Question: `CCC(=C(c1ccc(OC)cc1)c1ccc(OC)cc1)c1cc[n+]2c(c1)-c1cccc[n+]1[Au-]2([Cl])[Cl].F[P-](F)(F)(F)(F)F` [AuTAML] was tested. Which “DTNB reduction assay on purified rat liver TrxR1; BIAM labelling of Sec/Cys resi” value did it give?
Answer: a strong inhibition of TrxR1 activity was observed at low nanomolar concentrations of the Au(III) complex
